Source: patent US7138361B2, “Herbicidal heterocycles” (E. I. du Pont de Nemours and Company, priority 2000, dated 2006)

Columns and labels:
Assay type in all cases: in vivo
[1] = test system: Surinam grass (Brachiaria decumbens); experiment: Test B postemergence; conditions: 13 to 15 days
Outline: (§1)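 Seeds were planted and sprayed preemergence with test chemical in a non-phytotoxic solvent mixture containing surfactant; postemergence plants (2 to 18 cm, 1- to 4-leaf stage) received the same formulation. Greenhouse hold 13 to 15 days, then visual rating versus untreated controls on a 0–100 scale (0 no effect, 100 complete control).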

[2] = test system: barnyardgrass (Echinochloa crus-galli); experiment: Test B postemergence; conditions: 13 to 15 days
Outline: as §1

[3] = test system: blackgrass (Alopecurus myosuroides); experiment: Test B postemergence; conditions: 13 to 15 days
Outline: as §1

[4] = test system: cocklebur (Xanthium strumarium); experiment: Test B postemergence; conditions: 13 to 15 days
Outline: as §1

corn (Zea mays) [5] = experiment: Test B postemergence; conditions: 13 to 15 days
Outline: as §1

[6] = test system: crabgrass (Digitaria sanguinalis); experiment: Test B postemergence; conditions: 13 to 15 days
Outline: as §1

[7] = test system: giant foxtail (Setaria faberii); experiment: Test B postemergence; conditions: 13 to 15 days
Outline: as §1

[8] = test system: lambsquarters (Chenopodium album); experiment: Test B postemergence; conditions: 13 to 15 days
Outline: as §1

[9] = test system: morning glory (Ipomoea hederacea); experiment: Test B postemergence; conditions: 13 to 15 days
Outline: as §1

[10] = test system: pigweed (Amaranthus retroflexus); experiment: Test B postemergence; conditions: 13 to 15 days
Outline: as §1

[11] = test system: velvetleaf (Abutilon theophrasti); experiment: Test B postemergence; conditions: 13 to 15 days
Outline: as §1

[12] = test system: wheat (Triticum aestivum); experiment: Test B postemergence; conditions: 13 to 15 days
Outline: as §1

wild oat (Avena fatua) = experiment: Test B postemergence; conditions: 13 to 15 days
Outline: as §1

[13] = test system: Surinam grass (Brachiaria decumbens); experiment: Test B preemergence; conditions: scale 0 to 100, 0 no effect, 100 complete control
Outline: as §1

[14] = test system: barnyardgrass (Echinochloa crus-galli); experiment: Test B preemergence; conditions: scale 0 to 100, 0 no effect, 100 complete control
Outline: as §1

[15] = test system: cocklebur (Xanthium strumarium); experiment: Test B preemergence; conditions: scale 0 to 100, 0 no effect, 100 complete control
Outline: as §1

corn (Zea mays) [16] = experiment: Test B preemergence; conditions: scale 0 to 100, 0 no effect, 100 complete control
Outline: as §1

[17] = test system: crabgrass (Digitaria sanguinalis); experiment: Test B preemergence; conditions: scale 0 to 100, 0 no effect, 100 complete control
Outline: as §1

[18] = test system: giant foxtail (Setaria faberii); experiment: Test B preemergence; conditions: scale 0 to 100, 0 no effect, 100 complete control
Outline: as §1

[19] = test system: lambsquarters (Chenopodium album); experiment: Test B preemergence; conditions: scale 0 to 100, 0 no effect, 100 complete control
Outline: as §1

[20] = test system: morning glory (Ipomoea hederacea); experiment: Test B preemergence; conditions: Preemergence, Rate 500 g/ha; scale 0 to 100, 0 no effect, 100 complete control
Outline: as §1

[21] = test system: pigweed (Amaranthus retroflexus); experiment: Test B preemergence; conditions: Preemergence, Rate 500 g/ha; scale 0 to 100, 0 no effect, 100 complete control
Outline: as §1

rice (Oryza saliva) = experiment: Test B preemergence; conditions: Preemergence, Rate 500 g/ha; scale 0 to 100, 0 no effect, 100 complete control
Outline: as §1

[22] = test system: velvetleaf (Abutilon theophrasti); experiment: Test B preemergence; conditions: Preemergence, Rate 500 g/ha; scale 0 to 100, 0 no effect, 100 complete control
Outline: as §1

[23] = test system: smallflower flatsedge (Cyperus difformis); experiment: Test C flooded paddy test; conditions: for Flatsedge plant response rating: Flooded Paddy, scale 0 to 100, 0 no effect, 100 complete control; for Plant response rating, Flatsedge: flooded paddy test, scale 0 to 100 (0 no effect, 100 complete control)
Outline: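 Each species was cultivated to 2 leaves in flooded paddy pots, then treated. After a greenhouse period of 12–14 days, the plants were scored visually relative to controls from 0 (no effect) to 100 (complete control).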

Sunflower [24] = experiment: Test C preemergence; conditions: Rate 250 g/ha, visual evaluation after 12 to 14 days
Sunflower [25] = experiment: Test C preemergence; conditions: Rate 125 g/ha, scale 0 to 100, 0 no effect, 100 complete control
[26] = Rate 125 g/ha, scale 0 (no effect) to 100 (complete control)
[27] = Rate 500 g/ha, scale 0 to 100, 0 is no effect, 100 is complete control

## O=C1C(n2ccc(C3CCC3)n2)SCN1c1cccc(OC(F)F)c1 (centres unmarked) [Compound 45]
[1]; [26]
  Plant response rating, Surinam grass: 0
[1]; [27]
  Plant response rating, Surinam grass: 0
[2]; [26]
  Plant response rating, Barnyardgrass: 30
[2]; [27]
  Plant response rating, Barnyardgrass: 100
[3]; [26]
  Plant response rating, Blackgrass: 0
[3]; [27]
  Plant response rating, Blackgrass: 0
[4]; [26]
  Plant response rating, Cocklebur: 20
[4]; [27]
  Plant response rating, Cocklebur: 40
Corn (Zea mays) [5]; [26]
  Plant response rating, Corn: 0
Corn (Zea mays) [5]; [27]
  Plant response rating, Corn: 0
[6]; [26]
  Plant response rating, Crabgrass: 0
[6]; [27]
  Plant response rating, Crabgrass: 0
[7]; [26]
  Plant response rating, Foxtail, Giant: 0
[7]; [27]
  Plant response rating, Foxtail, Giant: 0
[8]; [26]
  Plant response rating, Lambsquarters: 0
[8]; [27]
  Plant response rating, Lambsquarters: 0
[9]; [26]
  Plant response rating, Morningglory: 0
[9]; [27]
  Plant response rating, Morningglory: 0
[10]; [26]
  Plant response rating, Pigweed: 0
[10]; [27]
  Plant response rating, Pigweed: 0
[11]; [26]
  Plant response rating, Velvetleaf: 0
[11]; [27]
  Plant response rating, Velvetleaf: 0
[12]; [26]
  Plant response rating, Wheat: 0
[12]; [27]
  Plant response rating, Wheat: 0
Wild oat (Avena fatua); [26]
  Plant response rating, Wild Oat: 0
Wild oat (Avena fatua); [27]
  Plant response rating, Wild Oat: 0
[13]; Preemergence, Rate 500 g/ha
  Plant response rating, Surinam grass: 80
[13]; preemergence, Rate 125 g/ha
  Plant response rating, Surinam grass: 70
[14]; Preemergence, Rate 500 g/ha
  Plant response rating, Barnyardgrass: 100
[14]; preemergence, Rate 125 g/ha
  Plant response rating, Barnyardgrass: 80
[15]; Preemergence, Rate 500 g/ha
  Plant response rating, Cocklebur: 0
[15]; preemergence, Rate 125 g/ha
  Plant response rating, Cocklebur: 0
Corn (Zea mays) [16]; Preemergence, Rate 500 g/ha
  Plant response rating, Corn: 0
Corn (Zea mays) [16]; preemergence, Rate 125 g/ha
  Plant response rating, Corn: 0
[17]; Preemergence, Rate 500 g/ha
  Plant response rating, Crabgrass: 100
[17]; preemergence, Rate 125 g/ha
  Plant response rating, Crabgrass: 30
[18]; Preemergence, Rate 500 g/ha
  Plant response rating, Foxtail, Giant: 100
[18]; preemergence, Rate 125 g/ha
  Plant response rating, Foxtail, Giant: 100
[19]; Preemergence, Rate 500 g/ha
  Plant response rating, Lambsquarters: 100
[19]; preemergence, Rate 125 g/ha
  Plant response rating, Lambsquarters: 100
[20]
  Plant response rating, Morningglory: 0
[21]
  Plant response rating, Pigweed: 100
Rice (Oryza saliva)
  Plant response rating, Rice: 60
[22]
  Plant response rating, Velvetleaf: 0
[23]; Rate 250 g/ha
  Flatsedge plant response rating: 100
[23]; Rate 500 g/ha
  Flatsedge plant response rating: 100
[23]; Rate 62 g/ha
  Plant response rating, Flatsedge: 90
[23]; Rate 125 g/ha
  Plant response rating, Flatsedge: 100
Sunflower [24]
  Plant response rating (0 to 100), Sunflower: 20
Sunflower [25]
  Plant response rating, Sunflower: 20
